Where a SMILES comes first, the peptide text is derived from it. [ ]: non-standard residue; d: D form. Nle = CCCC[C@H](N)C(=O)O
Columns and labels:
[1] = Mouse Hot Plate Assay (analgesia); assay type: in vivo, mice; details: for ED50: dose producing analgesia in 50% of animals, hot plate 48° C., parentheses = 95% fiducial limits; for ED50 / Duration of Action: intrathecal; for Duration of Action: duration of the analgesic effect; for Onset of Action: time to peak analgesic activity following intrathecal injection
Procedure: Analgesic Utility: The Mouse Hot Plate Assay was used to determine the activity of compounds of the invention as analgesics. The compound vehicles were as described above in the Scratching Assay.
Mouse Hot Plate Assay: The hot plate assay was used to assess analgesic potency, see Vaught and Chipkin, Eur. Journal. Pharmacol. 79, 167-173 (1982) and references therein. In these experiments the hot plate apparatus (Technilab Instruments, Inc.) was maintained at 48±0.05° C. The response measure was the time interval between the animal being placed on the heated surface and licking or shaking its hindpaw. Test drug was administered intrathecally and at appropriate times following drug administration the reaction times redetermined. A reaction time for drug-treated animals greater than three standard deviations from the mean of the control reaction times for all the animals in the group was the criterion for an analgesic response. At least three doses with 10 animals per dose were used to construct dose response curves.

[2] = tested on: Neurokinin B-induced scratching; test: Tachykinin-induced mouse scratching assay: antagonism of Neurokinin B-induced scratching; assay type: in vivo, Male, Swiss CD-1 mice; parameters: unit not given beside the values; details: dose of antagonist inhibiting NK-induced scratching by 50%; intrathecal, injected simultaneously with SD90 dose of NK; parentheses = 95% fiducial limits
Text: The tachykinin-induced mouse scratching assay was used to evaluate the ability of the Neurokinin B analogs of the invention to act in vivo as antagonists.
Male, Swiss CD-1 mice (Charles River, Kingston, NY) weighing between 18-24 g were used in all experiments. They were allowed food and water ad libitum and each animal was used only once.
Following the intrathecal injection of agonist, the animals were placed into individual plexiglass observation chambers and observed for five min for the occurrence of the characteristic reciprocal hind-limb scratching response (caudallyn directed scratching of the body interchangeably by the hind limbs). Animals were scored as either responders or non-responders. In order to assess the ability and specificity of the Neurokinin B analogs to block the scratching produced by substance P, Neurokinin B and bombesin, varying doses of the antagonists were injected simultaneously with that dose of agonist causing 90% of the animals to scratch. […] In some instances, the percent inhibitions of scratching for a given dose of agonist was compared to control values by the Fishers Exact Test.

[3] = tested on: substance P-induced scratching; assay type: in vivo, Male, Swiss CD-1 mice; parameters: ID50 vs SP: unit not given beside the values; details: for ID50 vs SP: dose of antagonist inhibiting SP-induced scratching by 50%, intrathecal, injected simultaneously with SD90 dose of SP, parentheses = 95% fiducial limits; for % inhibition of SP-induced scratching: mouse, in vivo
Text: (§1) The tachykinin-induced mouse scratching assay was used to evaluate the ability of the Neurokinin B analogs of the invention to act in vivo as antagonists. This test was chosen since scratching is well documented to be a reproducible, characteristic central effect of tachykinin agonists which can be blocked by tachykinin antagonists, see Hylden and Wilcox, Brain Res. 217: 212 (1981); Piercey et al., Science 214: 1361, (1981); Vaught et al., Eur. Journal Pharmacol. 103: 355, (1984).
(§2) Male, Swiss CD-1 mice (Charles River, Kingston, NY) weighing between 18-24 g were used in all experiments. They were allowed food and water ad libitum and each animal was used only once. Substance P, Neurokinin B, bombesin (a compound which induces scratching but is not a tachykinin), [D-Pro^2,D-Trp^7,9 ]-Substance P(1-11) and the product of Example 1 were dissolved in 0.01N acetic acid. The products of Examples 2, 3 and 4 were dissolved in 0.1N NaOH; DMSO and H2 O (1:1:4.7 v/v). These vehicles, injected intrathecally to mice, produced no overt behavioral effects.
To determine the activity of substance P, Neurokinin B and bombesin, these agonists were injected intrathecally (max. volume […]) according to the method of Hylden et al. described in Eur. Journal Pharmacol. 67: 313 (1980). Following the intrathecal injection of agonist, the animals were placed into individual plexiglass observation chambers and observed for five min for the occurrence of the characteristic reciprocal hind-limb scratching response (caudallyn directed scratching of the body interchangeably by the hind limbs). Animals were scored as either responders or non-responders. In order to assess the ability and specificity of the Neurokinin B analogs to block the scratching produced by substance P, Neurokinin B and bombesin, varying doses of the antagonists were injected simultaneously with that dose of agonist causing 90% of the animals to scratch. The ID50 (that dose of antagonist which inhibits scratching produced by an agonist by 50%) was then calculated by probit analysis. In some instances, the percent inhibitions of scratching for a given dose of agonist was compared to control values by the Fishers Exact Test. The following results were obtained in the Scratching Assay: […]

[4] = tested on: bombesin-induced scratching; assay type: in vivo, Male, Swiss CD-1 mice; details: % inhibition of scratching at 20 μg antagonist, intrathecal
Text: as §1, §2
To determine the activity of substance P, Neurokinin B and bombesin, these agonists were injected intrathecally (max. volume […]) according to the method of Hylden et al. described in Eur. Journal Pharmacol. 67: 313 (1980). […] Animals were scored as either responders or non-responders. […]

| Compound | ED50 [1] | Duration of Action [1] | Onset of Action [1] | ID50 vs. NK [2] | ID50 vs SP [3] | % inhibition of SP-induced scratching [3] | % Inhibition of Bombesin [4] |
| --- | --- | --- | --- | --- | --- | --- | --- |
| CCCC[C@H](NC(=O)[C@H](CC(C)C)NC(=O)[C@@H](Cc1c[nH]c2ccccc12)NC(=O)[C@@H](NC(=O)[C@@H](Cc1c[nH]c2ccccc12)NC(=O)[C@H](Cc1ccccc1)NC(=O)[C@H](CC(=O)O)NC(=O)[C@H](Cc1c[nH]cn1)NC(=O)[C@H]1CCCN1C(=O)[C@@H](N)CC(=O)O)C(C)C)C(N)=O [Example 1, Asp^1 -D-Pro^2 -His^3 -Asp^4 -Phe^5 -D-Trp^6 -Val^7 -D-Trp^8 -Leu^9 -Nle^10 -NH2] (H-D[dP]HDF[dW]V[dW]L[Nle]-NH2) | 4.6(3.0-6.4) μg | ≥ 90 min | 20 min | 0.6(0.3-1.2) | 3.4(2.3-5.2) | – | – |
| CCCC[C@H](NC(=O)[C@H](CC(C)C)NC(=O)[C@@H](Cc1c[nH]c2ccccc12)NC(=O)[C@@H](NC(=O)[C@@H](Cc1c[nH]c2ccccc12)NC(=O)[C@H](Cc1ccccc1)NC(=O)[C@H](CC(=O)O)NC(=O)[C@H](Cc1c[nH]cn1)NC(=O)[C@H]1CCCN1C(=O)[C@H](N)CC(=O)O)C(C)C)C(N)=O [Example 2, D-Asp^1 -D-Pro^2 -His^3 -Asp^4 -Phe^5 -D-Trp^6 -Val^7 -D-Trp^8 -Leu^9 -Nle^10 -NH2] (H-[dD][dP]HDF[dW]V[dW]L[Nle]-NH2) | 7.5(5.9-9.5) μg | 120 min | 20 min | – | – | 90% | – |
| CCCC[C@H](NC(=O)[C@H](CC(C)C)NC(=O)[C@@H](Cc1c[nH]c2ccccc12)NC(=O)[C@@H](NC(=O)[C@@H](Cc1c[nH]c2ccccc12)NC(=O)[C@H](Cc1ccccc1)NC(=O)[C@@H](CC(=O)O)NC(=O)[C@H](Cc1c[nH]cn1)NC(=O)[C@H]1CCCN1C(=O)[C@@H](N)CC(=O)O)C(C)C)C(N)=O [Example 4, Asp^1 -D-Pro^2 -His^3 -D-Asp^4 -Phe^5 -D-Trp^6 -Val^7 -D-Trp^8 -Leu^9 -Nle^10 -NH2] (H-D[dP]H[dD]F[dW]V[dW]L[Nle]-NH2) | 10.0(5.5-18.2) μg | ≤ 60 min | 20 min | – | – | 50% | – |
| [D-Pro^2,D-Trp^7,9 ]-Substance P(1-11) [[D-Pro^2,D-TrP^7,9]-SP(1-11), reference compound] | 5.5(3.2-6.8) μg | ≤ 15 min | 5 min | 2.6(0.8-4.8) | 4.6(2.9-6.9) | – | 20% |
| CCCC[C@H](NC(=O)[C@H](CC(C)C)NC(=O)[C@@H](Cc1c[nH]c2ccccc12)NC(=O)[C@@H](NC(=O)[C@@H](Cc1c[nH]c2ccccc12)NC(=O)[C@H](Cc1ccccc1)NC(=O)[C@@H](CC(=O)O)NC(=O)[C@H](Cc1c[nH]cn1)NC(=O)[C@H]1CCCN1C(=O)[C@H](N)CC(=O)O)C(C)C)C(N)=O [Example 3, D-Asp^1 -D-Pro^2 -His^3 -D-Asp^4 -Phe^5 -D-Trp^6 -Val^7 -D-Trp^8 -Leu^9 -Nle^10 -NH2] (H-[dD][dP]H[dD]F[dW]V[dW]L[Nle]-NH2) | 10.4(7.7-13.2) μg | ≤ 90 min | 20 min | – | – | 70% | – |

From US4665157A, “Peptide antagonists of neurokinin B” (priority 1985, dated 1987)
